Reference: patent US5500429A, “Calcium uptake inhibitors” (Merrell Pharmaceuticals Inc., priority 1993, dated 1996)
Where two headings read alike, the source gives them in different places.

Tests used:
[1] = tested on: Rat PMNL; test: Myeloperoxidase (MPO) Release from rat PMNL; format: cell-based; conditions: for inhibition at 1 µM / inhibition at 3 µM / inhibition at 10 µM / inhibition at 30 µM / inhibition at 100 µM / inhibition at 300 µM: Rattus norvegicus, PMNL
Procedure: (§1) Rat PMNL were obtained from exudates resulting from peritoneal injection of 6 mL of 8% sodium caseinate. Eighteen hours after injection rats were killed by carbon dioxide inhalation and the peritoneal cavity lavaged with Hank's balanced salt solution (HBSS). After concentration of the PMNL by centrifugation, contaminating erythrocytes were removed by hypotonic lysis. The PMNL were then washed twice by centrifugation (400×g for 10 minutes) and resuspended in HBSS. Cell viability was greater than 90% by Trypan Blue exclusion and greater than 90% of the cells were PMNL by Wright-Giemsa stain.
MPO release was determined using the MPO catalyzed oxidation of o-dianisidine. The experiments were carried out in 96-well microtiter plates (Webster and Henson, 1978). In each well, 50 microliter (μ1) aliquots of a PMNL suspension (2×10^7 cell/mL in HBSS) were incubated with 50 μof HBSS containing vehicle (0.3% DMSO) or inhibitor for 30 minutes at 37° C. The final DMSO concentration never exceeded 0.3% and was constant throughout each experiment. To activate the PMNL, 50 μl of one of the following were added for 30 minutes at 37° C.: N-formyl-Met-Leu-Phe (fMLP; 0.1 μM); phorbol myristate acetate (PMA, 200 ng/mL); or rat serum opsonized zymosan (OZ; 2.6 mg/mL, prepared by the method of Ward et al., 1983). The stimuli were added in 50 μl HBSS which also contained the compounds or vehicle, as appropriate, to avoid changing the inhibitor concentration. Cell activation was terminated by centrifugation of the plates at 600×g for 5 minutes at 22° C. Aliquots (100 μl) of supernatant were removed from each well and transferred to a 96-well flatbottomed microtiter plate for the MPO assay. To each aliquot of supernatant was added 100 μl of a freshly prepared solution containing 50 μl of 0.2M sodium phosphate buffer (pH 6.2), 25 μl of 3.9 mM O-dianisidine and 25 μl of 0.015M hydrogen peroxide. Blanks were obtained using the same solution without hydrogen peroxide. The plates were mixed and then incubated at room temperature in the dark for about 15 minutes. Absorbances of the samples were measured at 450 nm.
Rat PMNL were isolated in HBSS containing Ca^+2. As summarized in the figure below, fMLP stimulation of rat PMNL in the presence of cytochalasin B or with opsonized zymosan or with ionomycin results in the release of myeloperoxidase (fMLP/MPO, OZ/MPO, and ION/MPO; columns 2, 4, and 6 respectively).

[2] = tested on: Rat PMNL (intracellular calcium); test: Measurement of Intracellular Calcium (Fura-2) in fMLP-stimulated rat PMNL; format: cell-based; conditions: for suppression of the second wave of intracellular calcium changes: fMLP-stimulated PMNL, preincubation with compound, FIG. 1
Procedure: as §1
Intracellular calcium levels were obtained using Fura-2 as fluorescent indicator (Grynkiewicz et al., 1985). Fura-2 was loaded into PMNL as the acetoxymethyl ester (Fura-2/AM) using the method of Korchak et al., (1988). Specifically, 1×10^8 PMNL/mL were incubated in HBSS with 10 μM Fura-2/AM for 10 minutes at 37° C. The cells suspension was then diluted ten fold with HBSS and further incubated for another 20 minutes. The cells were then centrifuged (400×g for 8 minutes at 25° C.) and the PMNL (1×10^7 cells/mL) resuspended in HBSS containing 1% bovine serum albumin. Cells were stored at room temperature and used within 3 hours.
Intracellular calcium level determinations were made using a dual wavelength spectrofluorometer (Photon Technology International, New Brunswick, N.J.). Two mL of PMNL suspension (1×10^7 cells/mL) were stirred magnetically at 37° C. Cells were preincubated with the compounds for 15 minutes at 37° C. prior to activation. Where compounds were dissolved in DMSO and added directly, the DMSO never exceeded 0.3% in the final cell suspension. Total change in volume with addition of compounds or vehicle and stimuli never exceeded 3%. Intracellular calcium concentrations were calibrated by setting a maximum calcium level in the cells with the addition of 7 uM ionomycin to PMNL in HBSS containing 1% BSA. This was followed by treatment with 20 mM EGTA for 1 hour to obtain a minimum calcium level. […]

[3] = fMLP + cytochalasin B, read-out: fMLP/MPO inhibition
[4] = ionomycin, read-out: ION/MPO inhibition
[5] = opsonized zymosan, read-out: OZ/MPO inhibition
[6] = fMLP + cytochalasin B, opsonized zymosan, ionomycin

Row | SMILES | inhibition at 1 µM [1, 3] [%] | inhibition at 3 µM [1, 3] [%] | inhibition at 10 µM [1, 3] [%] | inhibition at 30 µM [1, 3] [%] | inhibition at 100 µM [1, 3] [%] | inhibition at 1 µM [1, 4] [%] | inhibition at 3 µM [1, 4] [%] | inhibition at 10 µM [1, 4] [%] | inhibition at 30 µM [1, 4] [%] | inhibition at 100 µM [1, 4] [%] | inhibition at 1 µM [1, 5] [%] | inhibition at 3 µM [1, 5] [%] | inhibition at 10 µM [1, 5] [%] | inhibition at 30 µM [1, 5] [%] | inhibition at 100 µM [1, 5] [%] | inhibition of myeloperoxidase release [1, 6] | suppression of the second wave of intracellular calcium changes [2] | also measured
1 | O=C(C=Cc1ccncc1)c1ccccc1 [MDL 29,355, 1-phenyl-3-(4-pyridinyl)-2-propene-1-one] | 0.1 | 5 | 16.5 | 53.3 | 101 | -4.5 | -1.7 | 14.8 | 24.4 | 89.1 | -1.7 | 3.4 | 3.6 | 3.2 | 7.1 | dose dependent inhibition of myeloperoxidase release | selective concentration-dependent suppression of the second wave of intracellular calcium changes | inhibition at 300 µM [1, 3]: 104%; inhibition at 300 µM [1, 4]: 99.6%; inhibition at 300 µM [1, 5]: 42.4%
2 | CN(C)c1ccc(C(=O)C=Cc2ccncc2)cc1 [MDL 101,240, 1-(4-dimethylaminophenyl)-3-(4-pyridinyl)-2-propene-1-one] | 13.1 | 11.7 | 31.2 | 67.3 | 112 | -8 | -5 | -2 | 12 | 35.6 | 2.5 | 7.3 | 28.1 | 82.5 | 142 | dose dependent inhibition of myeloperoxidase release | selective concentration-dependent suppression of the second wave of intracellular calcium changes | relative inhibition of the second phase (calcium uptake) ([2]; MDL 101,240 vs MDL 29,355, fMLP stimulus): stronger inhibition for MDL 101,240 than for MDL 29,355
